In US20260216180A1, “QUINOLINE DERIVATIVE COMPOUNDS OR PHARMACEUTICALLY ACCEPTABLE SALT THEREOF, PREPARATION METHOD THEREFOR AND USE THEREOF” (JIANGSU CAREPHAR PHARMACEUTICAL CO.,LTD., priority 2023, published 2026):

Columns and labels:
Type in all cases: cell-based
miR-124 = assay: Regulation of miR-124 expression in a PBMC in vitro model (qPCR); conditions: 5 μM test compound, 24 h, human PBMC stimulated with PHA-L and IL-2; miR-191 internal reference; read-out: Relative expression of miR-124, fold change compared with DMSO-treated cells
Procedure: Pharmacological Activity Test: Regulation of miR-124 Expression by the Quinoline Derivatives in a PBMC In Vitro Model
• a. human PBMC cells • b. PHA-L • c. IL-2 • d. mirVana™ miRNA Extraction kit • e. TaqMan Advanced miRNA cDNA Synthesis Kit • f. TaqMan Fast Gene Expression Master Mix • g. TaqMan Advanced miRNA Assay (mir191) • h. TaqMan Advanced miRNA Assay (mir124)
Human PBMC cells were resuscitated. The cell suspension was transferred to a 75 cm^2 culture flask containing 13 mL of culture medium. The cells were cultured overnight in a 37° C., 5% CO2 incubator. The cell suspension was then collected in a conical flask, centrifuged at 1200 rpm for 5 minutes, and the supernatant was discarded. The cells were resuspended in 1 mL of fresh culture medium, and then the cell clumps were gently blown apart and inoculated into a 6-well plate at a density of 4*10^6 cells/mL. 5 μg/mL PHA-L and 10 ng/mL IL-2 were added to each well. The cells were incubated in the incubator for 48 hours. 5 μM of the test compound was added to each well of a 6-well plate, and 0.1% DMSO was added to the blank control wells, and the plate was incubated at 37° C. for 24 h. Cells were collected, Total RNA was isolated and extracted according to the procedure of the mirVana™ miRNA Extraction Kit, and cDNA was prepared according to the procedure of the TaqMan Advanced miRNA cDNA Synthesis Kit. MiR-191 was used as the internal reference gene for qPCR test.
That is, RNA sample→poly (A) tailing reaction→adapter reaction→reverse transcription (RT) reaction→miR-amplification reaction→qPCR test.
The qPCR procedure includes: 50° C. 2 min; 95° C. 20 s; 95° C. 1 s, a 60° C. 20 s, 40 cycles.
The relative gene expression was calculated using the following formula: ΔCt=Ct (miR-124)−Ct (miR-191)
Relative miRNA expression=2^−ΔCt.

TNF-α = assay: Macrophage TNF-α secretion after LPS (ELISA); conditions: Bone marrow macrophage, compared to 0 μM, mouse bone marrow macrophages, 200 ng/ml LPS, 6 hours, read-out: Inhibition rate of TNFα at 10 μM concentration
Procedure: (§1) Pharmacological Activity Test: Regulatory Effect of Quinoline Derivatives on Macrophage IL-6 and TNF-α Secretion
(§2) Mouse bone marrow cells were isolated from the femur and tibia bone marrow of […] mice of 6-8 week old raised under SPF conditions and inoculated in 6-well plates at a density of 1.5*10^6 cells/well/2 mL. 50 ng/mL M-CSF was added to each well and the cells were cultured in a CO2 incubator for 3 days. On the third day, the culture medium was replaced with fresh medium containing 100 ng/mL M-CSF and the culture was continued for 3 days. On the 6th day, the supernatant was removed and the cells were washed once with DPBS. After adding 1 mL of DPBS, the macrophages were harvested using a cell scraper, centrifuged at 400 g for 10 min, and the supernatant was discarded. The cells were resuspended in fresh culture medium containing 50 ng/mL M-CSF, inoculated in a 96-well plate at a density of 2*10^4 cells/well/200 μL, and cultured in a CO2 incubator overnight. 0, 3, 5, […] of the test compound were added to each well (wherein well 0 contains 0.1% DMSO) respectively and incubate in a CO2 incubator for 1 hour. Then 200 ng/ml LPS was added and the cell supernatant was collected after 6 hours of co-culture. ELISA kits were used to detect the secretion levels of IL-6 and TNF-α.

IL-6 = assay: Macrophage IL-6 secretion after LPS (ELISA); conditions: Bone marrow macrophage, compared to 0 μM, mouse bone marrow macrophages, 200 ng/ml LPS, 6 hours, read-out: Inhibition rate of IL-6 at 10 μM concentration
Procedure: as §1, §2

| SMILES | fold induction at 5 µM (miR-124) | inhibition at 10 µM (TNF-α) | inhibition at 10 µM (IL-6) |
| --- | --- | --- | --- |
| FC(F)C1(c2ccc(Nc3ccc4cccc(Cl)c4n3)cc2)CC1 [Compound 1, 8-chloro-N-(4-(1-(difluoromethyl)cyclopropyl)phenyl)quinolin-2-amine] | 1.5 | 85% | 81% |
| FC(F)(F)C1(c2ccc(Nc3ccc4cccc(Cl)c4n3)nc2)CC1 [Compound 2, 8-chloro-N-(5-(1-(trifluoromethyl)cyclopropyl)pyridin-2-yl)quinolin-2-amine] | 8.35 | – | – |
| CC(C)(c1ccc(Nc2ccc3cccc(Cl)c3n2)cc1)C(F)(F)F [Compound 3, 8-chloro-N-(4-(1,1,1-trifluoro-2-methylprop-2-yl)phenyl)quinolin-2-amine] | 7.33 | – | – |
| FC(F)(F)C1(c2ccc(Nc3ccc4cccc(Cl)c4n3)cc2)CC1 [Compound 4, 8-chloro-N-(4-(1-(trifluoromethyl)cyclopropyl)phenyl)quinolin-2-amine] | 15.9 | 84% | 85% |
| FC(F)(F)C1(c2ccnc(Nc3ccc4cccc(Cl)c4n3)c2)CC1 [Compound 6, 8-chloro-N-(4-(1-(trifluoromethyl)cyclopropyl)pyridin-2-yl)quinolin-2-amine] | 7.28 | – | – |
| FC(F)(F)C1(c2ccc(Nc3ccc4cccc(Cl)c4n3)cn2)CC1 [Compound 7, 8-chloro-N-(6-(1-(trifluoromethyl)cyclopropyl)pyridine-3-yl)quinolin-2-amine] | 1.8 | – | – |
| COc1cc(C2(C(F)(F)F)CC2)ccc1Nc1ccc2cccc(Cl)c2n1 [Compound 8, 8-chloro-N-(2-methoxy-4-(1-(trifluoromethyl)cyclopropyl)phenyl)quinolin-2-amine] | 6 | – | – |
| FC(F)(F)C1(c2cccc(Nc3ccc4cccc(Cl)c4n3)c2)CC1 [Compound 9, 8-chloro-N-(3-(1-(trifluoromethyl)cyclopropyl)phenyl)quinolin-2-amine] | 4.24 | – | – |
| Fc1cc(Cl)c2nc(Nc3ccc(C4(C(F)(F)F)CC4)cn3)ccc2c1 [Compound 10, 8-chloro-6-fluoro-N-(5-(1-(trifluoromethyl)cyclopropyl)pyridin-2-yl)quinolin-2-amine] | 6.9 | – | – |
| Cc1cc(Nc2ccc3cccc(Cl)c3n2)ncc1C1(C(F)(F)F)CC1 [Compound 13, 8-chloro-N-(4-methyl-5-(1-(trifluoromethyl)cyclopropyl)pyridin-2-yl)quinolin-2-amine] | 5.9 | – | – |
| FC(F)(F)C1(c2cnc(Nc3ccc4cccc(Cl)c4n3)cn2)CC1 [Compound 14, 8-chloro-N-(5-(1-(trifluoromethyl)cyclopropyl)Pyrazin-2-yl)quinolin-2-amine] | 8.1 | – | – |
| Fc1cc(Nc2ccc3cccc(Cl)c3n2)ncc1C1(C(F)(F)F)CC1 [Compound 15, 8-chloro-N-(4-fluoro-5-(1-(trifluoromethyl)cyclopropyl)pyridin-2-yl)quinolin-2-amine] | 1.99 | – | – |
| Fc1cc(Cl)c2nc(Nc3cc(C4(C(F)(F)F)CC4)ccn3)ccc2c1 [Compound 17, 8-chloro-6-fluoro-N-(4-(1-(trifluoromethyl)cyclopropyl)pyridin-2-yl)quinolin-2-amine] | 56.4 | – | – |
| N#Cc1cc(Cl)c2nc(Nc3ccc(C4(C(F)(F)F)CC4)cn3)ccc2c1 [Compound 19, 8-chloro-2-((5-(1-(trifluoromethyl)cyclopropyl)pyridin-2-yl)amino)quinolin-6-nitrile] | 118 | – | – |
| N#Cc1cc(Cl)c2nc(Nc3ccc(C4(C(F)(F)F)CC4)cc3)ccc2c1 [Compound 20, 8-chloro-2-((4-(1-(trifluoromethyl)cyclopropyl)phenyl)amino)quinolin-6-carbonitrile] | 15.2 | – | – |
| CS(=O)(=O)c1cc(Cl)c2nc(Nc3ccc(C4(C(F)(F)F)CC4)cc3)ccc2c1 [Compound 21] | 21.2 | – | – |
| CC(C)(c1ccc(Nc2ccc3cccc(Cl)c3n2)cc1)C(F)F [Compound 22, 8-chloro-N-(4-(1,1-difluoro-2-methylpropan-2-yl)phenyl)quinolin-2-amine] | 1.96 | – | – |
| FC(F)(F)C1(c2cnc(Nc3ccc4cccc(Cl)c4n3)nc2)CC1 [Compound 24, 8-chloro-N-(5-(1-(trifluoromethyl)cyclopropyl)pyrimidin-2-yl)quinolin-2-amine] | 1.99 | – | – |
